# Assay results as given in patent publication US20130123201A1, “MODULATION OF CYTOKINE-INDUCED CHRONIC INFLAMMATORY RESPONSES” (UNIVERSITY OF MANITOBA, priority 2010, published 2013).
# Where “and” joins values, the source holds several entries; their conditions need not be identical. Equal values may be shown once. Entries after “also recorded” stand apart in the source; their conditions may differ.
# Assays:
# [1] = test system: NF-κB in rabbit synoviocyte HIG-82 cells; assay: NF-κB-reporter luminescence assay; format: cell-based; conditions: rabbit synovial fibroblast cell line HIG-82, 4 and 6 hr
# Protocol: NF-κB-reporter luminensence assay: Rabbit synoviocyte HIG-82 cells were transiently transfected with pNFκB-MetLuc2-Reporter Vector (Clontech laboratories Inc., Mountain View, Calif., USA) or the provided control vector as per the manufacturer's instructions. Various stimulants were added to the transfected cells in culture media containing 1% (v/v) FBS. The cells were stimulated with either recombinant human IL-32 or IL-17, and in parallel with known activators of NF-κB such as pro-inflammatory recombinant human cytokines TNF-αand IL-1β, or bacterial lipopolysaccharide (LPS), for 4 or 6 hr. The activation of NF-κB was monitored by employing the Ready-To-Glow Secreted NF-κB Luciferase Reporter Assay (Clontech) as per the manufacturer's instructions.
# NF-κB-reporter luminensence assay: In order to monitor direct NF-κB activation in synoviocytes, a rabbit synoviocyte cell line, HIG-82 (ATCC® CRL-1832) was transiently transfected with pNFκB-MetLuc2-Reporter Vector (Clontech laboratories Inc., Mountain View, Calif., USA) or the provided control vector as per the manufacturer's instructions. Various stimulants were added to the transfected cells in culture media containing 1% (v/v) FBS. […] The activation of NF-κB was monitored by employing the Ready-To-Glow Secreted NF-κB Luciferase Reporter Assay (Clontech Laboratories Inc.) per the manufacturer's instructions.
# [2] = test system: Human macrophage-like THP-1 cells; assay: Kinome profiling with peptide arrays of kinase phosphorylation targets; format: cell-based; conditions: cytokine 20 ng/mL, 15 min, relative to un-stimulated control cells
# Protocol: Kinome profiling: Human monocytic THP-1 cells were differentiated to plastic-adherent macrophage-like cells by treatment with PMA as described above, the cells were rested for 24 hr and then stimulated with either IL-32 (20 ng/mL) or IL-17 (20 ng/mL) for 15 min.
# Subsequently, cellular lysates were prepared in lysis buffer (containing 20 mM Tris-HCl pH 7.5, 150 mM NaCl, 1 mM EDTA, 1 mM EGTA, 1 mM sodium fluoride, 1 mM sodium orthovanadate, 2.5 mM sodium pyrophosphate, protease inhibitor cocktail (Sigma-Aldrich) and 1% (v/v) Triton X-100, as taught by Jalal et al. (2009, Genome to kinome: species-specific peptide arrays for kinome analysis. Sci. Signal 2:11). Peptide arrays representing phosphorylation targets of kinase activity were incubated with the cellular lysates for quantifying global kinase activity following the methods disclosed by Jalal et al. (2009). The trends of protein phosphorylation events upon stimulation with IL-32 and IL-17 were comprehensively analysed after normalization and background correction of signal strength following the methods disclosed by Jalal et al. (2009). The phosphorylations of the peptides on the array were quantitated in the cytokine-treated cells relative to the un-stimulated control cells.
# Kinome profiling: Human macrophage-like THP-1 cells were differentiated to plastic-adherent macrophage-like cells by treatment with PMA as described above, after which the cells were rested for 24 hr and then stimulated with either IL-32 (20 ng/mL) or IL-17 (20 ng/mL) for 15 min. Subsequently, cellular lysates were prepared in lysis buffer (containing 20mM Tris-HCl pH 7.5, 150 mM NaCl, 1 mM EDTA, 1 mM EGTA, 1 mM sodium fluoride, 1 mM sodium orthovanadate, 2.5 mM sodium pyrophosphate, protease inhibitor cocktail (Sigma-Aldrich Canada Inc.) and 1% (v/v) Triton X-100, as taught by Mookherjee et al. (2006). Peptide arrays representing phosphorylation targets of kinase activity were incubated with the cellular lysates for quantifying global kinase activity as taught by Jalal et al. (2009, Genome to kinome: species-specific peptide arrays for kinome analysis. Sci. Signal 2:11). The trends of protein phosphorylation events upon stimulation with IL-32 and IL-17 were comprehensively analysed after normalization and background correction of signal strength as taught by Jalal et al. (2009). The phosphorylations of the peptides on the array were quantitated in the cytokine-treated cells relative to the un-stimulated control cells.
# Differential phosphorylation events in THP-1 cells stimulated by IL-32 and IL-17: THP-1 cells were stimulated with either IL-17 (20 ng/ml) or IL-32 (20 ng/ml) for 15 min. The cellular lysates were incubated with peptide arrays representing phosphorylation targets of kinase activity for quantifying global kinase activity as previously described. The phosphorylation of the peptides on the array were quantitated in the cytokine-treated cells relative to the un-stimulated control cells after normalization and background correction of signal strength taught by Jalal et al. (2009).
substance,measurement,setting,value
"IL-17: Recombinant human cytokine IL-17A/F from eBioscience, used as stimulant",Activation of transcription factor NF-κB,[1],induced direct activation; also recorded: activated
same,"Relative Fold change in phosphorylation, APE1 (P27695) S289",[2],1.52 fold and 1.28 fold
same,"Relative Fold change in phosphorylation, Akt1 (P31749) S124/9",[2],−3.27 fold
same,"Relative Fold change in phosphorylation, CCR5 (P51681) S336/7",[2],−2.62 fold
same,"Relative Fold change in phosphorylation, CTNNB1 (P35222) T41/45",[2],−4.12 fold
same,"Relative Fold change in phosphorylation, DAPK1 (P53355) S308",[2],2.19 fold and 1.45 fold
same,"Relative Fold change in phosphorylation, Daxx (Q9UER7) S668/71",[2],−3.45 fold
same,"Relative Fold change in phosphorylation, Grb10 (Q13322) S150",[2],−1.86 fold
same,"Relative Fold change in phosphorylation, Kit (P10721) Y721",[2],−1.75 fold
same,"Relative Fold change in phosphorylation, NFAT4 (Q12968) S163/5",[2],−2.22 fold
same,"Relative Fold change in phosphorylation, PKACa (P17612) S338",[2],−1.64 fold
same,"Relative Fold change in phosphorylation, STAT6 (P42226) Y641",[2],−1.94 fold
same,"Relative Fold change in phosphorylation, Smad3 (P84022) S422/3/5",[2],−2.37 fold
same,"Relative Fold change in phosphorylation, TAK1 (O43318) T184",[2],−2.01 fold
same,"Relative Fold change in phosphorylation, axin-1 (O15169) S486",[2],−3.73 fold
same,"Relative Fold change in phosphorylation, p53 (P04637) S6/9",[2],−2.43 fold
same,"Relative Fold change in phosphorylation, p300 (Q09472) S1834",[2],1.92 fold and 1.71 fold
